Data as given in ChEMBL document CHEMBL1201862, “PubChem BioAssay data set” (2004).
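1) Cells in 96-well plates. 2) Compound, 48 h, 5 concentrations. 3) Linear interpolation between surrounding doses. 4) Unreached endpoint = highest concentration. GI50 marks 50% less growth.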 Active and inactive are the calls of the source. Rule as the data show it: active = GI50 up to about 1.1 µM and inactive = higher.

Legend:
Assay in all cases: DTP human tumour cell line panel, 48 h
[1] = test system: CAKI-1
[2] = test system: A498
[3] = test system: K562
[4] = test system: SK-MEL-28
[5] = test system: HOP-62
[6] = test system: UACC-62
[7] = test system: SF-295
[8] = test system: CCRF-CEM
[9] = test system: SF-539
[10] = test system: NCI-H23
[11] = test system: SF-268
[12] = test system: HOP-92
[13] = test system: COLO 205
[14] = test system: 786-0
[15] = test system: OVCAR-5

Measured: GI50

CN(/N=C/c1ccnc2ccccc12)c1ccc([N+](=O)[O-])cc1[N+](=O)[O-]
inactive: [1] > 100 µM | [2] > 100 µM | [3] > 100 µM | [4] 87.7 µM | [5] 30.3 µM | [6] > 100 µM | [7] 37.3 µM | [8] > 100 µM | [9] 89.5 µM | [10] 91.6 µM | [11] > 100 µM | [12] 46.9 µM | [13] > 100 µM | [14] 30.6 µM | [15] > 100 µM

Nc1ccc(C(=O)NN2C(=O)C(Cl)C2c2ccccc2O)cc1 (centres undefined)
inactive: [1] 47.8 µM | [3] 75 µM | [4] > 100 µM | [5] 65.2 µM | [6] 72.3 µM | [7] 47.2 µM | [8] 6.01 µM | [9] 85.9 µM | [10] > 100 µM | [11] 70.1 µM | [12] > 100 µM | [13] 43.2 µM | [14] 30.2 µM | [15] 41.7 µM

O=S(=O)(O)c1ccc(-c2c3nc(c(-c4ccc(S(=O)(=O)O)cc4)c4ccc([nH]4)c(-c4ccc(S(=O)(=O)O)cc4)c4nc(c(-c5ccc(S(=O)(=O)O)cc5)c5ccc2[nH]5)C=C4)C=C3)cc1
inactive: [1] > 100 µM | [2] 31 µM | [3] > 100 µM | [4] 16.5 µM | [5] > 100 µM | [6] > 100 µM | [7] 42.7 µM | [8] > 100 µM | [9] > 100 µM | [10] 58.1 µM | [11] 92.5 µM | [12] 21.8 µM | [13] > 100 µM | [14] > 100 µM | [15] > 100 µM

COC(=O)/C(C#N)=C1\NN=NN1CCCN1CCOCC1
inactive: [1] > 100 µM | [2] > 100 µM | [3] > 100 µM | [4] > 100 µM | [6] > 100 µM | [7] > 100 µM | [8] > 100 µM | [9] > 100 µM | [10] > 100 µM | [12] > 100 µM | [13] > 100 µM | [14] > 100 µM

O=C(O)CSc1nnc(-c2ccccc2)[nH]1
inactive: [1] > 100 µM | [2] > 100 µM | [3] > 100 µM | [4] > 100 µM | [5] > 100 µM | [6] > 100 µM | [7] > 100 µM | [8] > 100 µM | [9] > 100 µM | [10] > 100 µM | [11] > 100 µM | [13] > 100 µM | [14] > 100 µM | [15] > 100 µM

CC(C)(C)OC(=O)Cc1ccc2c(ccn2Cc2ccccc2)c1
inactive: [1] > 100 µM | [2] > 100 µM | [3] > 100 µM | [4] > 100 µM | [5] > 100 µM | [6] 69 µM | [7] 75.2 µM | [8] > 100 µM | [9] 93.5 µM | [10] 44.8 µM | [11] 66.4 µM | [12] 79.3 µM | [13] 44.1 µM | [14] 73.8 µM | [15] 42.5 µM

C1CC2=C(C1)C1=S(S2)SC2=C1CCC2
inactive: [1] > 100 µM | [2] 10.7 µM | [3] > 100 µM | [4] > 100 µM | [6] > 100 µM | [7] > 100 µM | [8] > 100 µM | [9] > 100 µM | [10] > 100 µM | [11] > 100 µM | [12] > 100 µM | [13] > 100 µM | [14] > 100 µM | [15] > 100 µM

COc1ccc2c(c1)CC1c3c(cc4c(c3-2)OCO4)CCN1C (centres undefined)
inactive: [1] 23.9 µM | [2] 14.4 µM | [3] 23.3 µM | [4] 28.8 µM | [5] 30.1 µM | [6] 21.6 µM | [7] 21.6 µM | [8] 23 µM | [9] 31.3 µM | [10] 23.8 µM | [11] > 10 µM | [12] 18.1 µM | [13] 15.8 µM | [14] 27.6 µM | [15] 30.1 µM

CN(C(=O)C1CC1)C1C2CN3CCC(O2)C13 (centres undefined)
inactive: [1] > 100 µM | [2] > 100 µM | [3] > 100 µM | [4] > 100 µM | [5] > 100 µM | [6] > 100 µM | [7] > 100 µM | [8] > 100 µM | [9] > 100 µM | [10] > 100 µM | [11] > 100 µM | [12] > 100 µM | [13] > 100 µM | [14] > 100 µM | [15] > 100 µM

Cn1c2c(c3ccccc31)CCN(CCCCN1CCN(c3cccc(Cl)c3)CC1)C2=O
inactive: [1] 27.2 µM | [2] 13.8 µM | [3] 4.45 µM | [4] 6.07 µM | [5] 15.2 µM | [6] 11.4 µM | [7] 16.1 µM | [8] 9.86 µM | [9] 12.8 µM | [10] 12.6 µM | [11] 16.9 µM | [12] 15.2 µM | [13] 2.91 µM | [14] 13 µM | [15] 4.56 µM

COC(=O)C1C=NNC1C(=O)OC (centres undefined)
inactive: [1] > 100 µM | [2] > 100 µM | [3] > 100 µM | [5] > 100 µM | [6] > 100 µM | [7] > 100 µM | [8] > 100 µM | [9] > 100 µM | [10] > 100 µM | [11] > 100 µM | [13] > 100 µM | [14] > 100 µM | [15] > 100 µM

CC(=O)/C=C/c1ccc(C)cc1
inactive: [1] > 100 µM | [2] > 100 µM | [3] > 100 µM | [4] > 100 µM | [5] > 100 µM | [6] > 100 µM | [7] > 100 µM | [8] > 100 µM | [9] > 100 µM | [10] > 100 µM | [11] > 100 µM | [12] > 100 µM | [13] > 100 µM | [14] > 100 µM | [15] > 100 µM

CCOc1ccc(/N=N/c2ccc3oc(=O)c(C(=O)Nc4ccc(OC)cc4)cc3c2)cc1
inactive: [1] 11 µM | [2] 4.22 µM | [3] 8.38 µM | [4] 18.9 µM | [5] 21.9 µM | [6] 11.7 µM | [7] 31.2 µM | [8] 2.36 µM | [9] 20.2 µM | [10] 19.7 µM | [11] 9.1 µM | [13] 47.9 µM | [14] 21.9 µM | [15] 32 µM

O=C(O)CCC1CCc2cccc(OCC(=O)O)c2C1=O (centres undefined)
inactive: [1] > 100 µM | [2] > 100 µM | [3] > 100 µM | [4] > 100 µM | [5] > 100 µM | [6] > 100 µM | [7] > 100 µM | [8] > 100 µM | [9] > 100 µM | [10] > 100 µM | [12] > 100 µM | [13] > 100 µM | [14] > 100 µM
